Measurements taken from US20210300924A1, “5-[6-[[3-(4,5,6,7-TETRAHYDROPYRAZOLO[4,3-C]PYRIDIN-1-YL)AZETIDIN-1-YL]METHYL]MORPHOLIN-4-YL]QUINOLINE-8-CARBONITRILE DERIVATIVES AND SIMILAR COMPOUNDS AS TLR7-9 ANTAGONISTS FOR TREATING SYSTEMIC LUPUS ERYTHEMATOSUS” (Hoffmann-La Roche Inc., priority 2018, published 2021).
pIC50: −log10 of the molar value.

Columns and labels:
human TLR7 = target: T1, human TLR7 (Homo sapiens, UniProt Q9NYK1); test: HEK293-Blue-hTLR-7 cells assay; format: cell-based; details: HEK293-Blue-hTLR7 cells, R848 stimulation, 20 hrs, SEAP reporter; read-out: HEK/hTLR7 IC50
T1 construct: host or cells: HEK293 (HEK-Blue hTLR7)
T1 sequence (Q9NYK1 27-1049): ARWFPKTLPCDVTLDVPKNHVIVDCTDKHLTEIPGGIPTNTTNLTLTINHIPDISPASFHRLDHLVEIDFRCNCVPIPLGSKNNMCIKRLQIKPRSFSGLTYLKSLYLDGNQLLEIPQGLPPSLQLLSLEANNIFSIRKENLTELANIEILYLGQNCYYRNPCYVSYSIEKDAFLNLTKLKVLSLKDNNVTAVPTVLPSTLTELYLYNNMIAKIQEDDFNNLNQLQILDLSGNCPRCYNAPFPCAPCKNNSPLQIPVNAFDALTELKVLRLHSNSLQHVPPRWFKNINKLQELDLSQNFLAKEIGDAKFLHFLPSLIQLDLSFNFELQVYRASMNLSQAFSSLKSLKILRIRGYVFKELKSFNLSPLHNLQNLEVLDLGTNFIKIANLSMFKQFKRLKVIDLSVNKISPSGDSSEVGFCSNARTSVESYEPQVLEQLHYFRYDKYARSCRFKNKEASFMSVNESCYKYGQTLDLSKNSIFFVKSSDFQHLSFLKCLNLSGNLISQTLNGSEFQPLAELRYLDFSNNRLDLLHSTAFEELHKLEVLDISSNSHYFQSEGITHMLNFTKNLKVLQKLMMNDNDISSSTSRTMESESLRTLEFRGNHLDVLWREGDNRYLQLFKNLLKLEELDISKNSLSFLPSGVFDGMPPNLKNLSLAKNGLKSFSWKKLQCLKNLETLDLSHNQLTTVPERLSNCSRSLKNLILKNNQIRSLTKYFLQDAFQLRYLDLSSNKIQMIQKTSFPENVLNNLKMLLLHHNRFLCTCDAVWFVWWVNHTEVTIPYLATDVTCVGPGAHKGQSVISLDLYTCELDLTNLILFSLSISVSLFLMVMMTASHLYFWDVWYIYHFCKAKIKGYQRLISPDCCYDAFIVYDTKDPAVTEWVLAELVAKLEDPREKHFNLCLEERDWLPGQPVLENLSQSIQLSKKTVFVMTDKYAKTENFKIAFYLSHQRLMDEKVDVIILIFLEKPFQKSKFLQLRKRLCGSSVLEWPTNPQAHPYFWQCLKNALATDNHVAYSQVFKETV
Source text: HEK293-Blue-hTLR-7 cells assay:
A stable HEK293-Blue-hTLR-7 cell line was purchased from InvivoGen (Cat. #: hkb-htlr7, San Diego, Calif., USA). These cells were originally designed for studying the stimulation of human TLR7 by monitoring the activation of NF-κB. A SEAP (secreted embryonic alkaline phosphatase) reporter gene was placed under the control of the IFN-β minimal promoter fused to five NF-κB and AP-1-binding sites. The SEAP was induced by activating NF-κB and AP-1 via stimulating HEK-Blue hTLR7 cells with TLR7 ligands. Therefore the reporter expression was declined by TLR7 antagonist under the stimulation of a ligand, such as R848 (Resiquimod), for incubation of 20 hrs. The cell culture supernatant SEAP reporter activity was determined using QUANTI-Blue™ kit (Cat. #: rep-qb1, Invivogen, San Diego, Ca, USA) at a wavelength of 640 nm, a detection medium that turns purple or blue in the presence of alkaline phosphatase.
HEK293-Blue-hTLR7 cells were incubated at a density of 250,000-450,000 cells/mL in a volume of 170 μL in a 96-well plate in Dulbecco's Modified Eagle's medium (DMEM) containing 4.5 g/L glucose, 50 U/mL penicillin, […], […], 2 mM L-glutamine, 10% (v/v) heat-inactivated fetal bovine serum with addition of 20 μL test compound in a serial dilution in the presence of final DMSO at 1% and 10 μL of 20 uM R848 in above DMEM, perform incubation under 37° C. in a CO2 incubator for 20 hrs. Then 20 μL of the supernatant from each well was incubated with 180 μL Quanti-blue substrate solution at 37° C. for 2 hrs and the absorbance was read at 620˜655 nm using a spectrophotometer. The signaling pathway that TLR7 activation leads to downstream NF-κB activation has been widely accepted, and therefore similar reporter assay was modified for evaluating TLR7 antagonist.

CYP2D6 = target: T2, CYP2D6 (Homo sapiens, UniProt P10635); test: CYP inhibition assay in human liver microsome; format: in vitro ADME; details: human liver microsomes, probe dextromethorphan, dextromethorphan substrate, percentage inhibition <0: not or weak inhibitor, read-out: CYP 2D6 inhibition % @ 10 μM
T2 construct: tissue BD-Gentest 452117; host or cells: human liver microsomes
Protocol: This is a high throughput screening assay used for assessment of reversible inhibition of CYP2D6 activity of test compounds in human liver microsome (HLM) in early discovery stage.
10 mM DMSO stock solutions of test compounds were diluted in DMSO to generate 2 mM intermediate stock solution. 250 nL of intermediate stock solution were transferred in duplicate into 3 separate 384 well microtitre plates (assay-ready plates). A mixture of HLM and each substrate was made up. 45 μL of HLM substrate mix was then transferred to each well of an assay ready plate and mixed. The negative (solvent) and positive control (standard inhibitor for CYP 2D6) were included in each assay ready plate. The assay ready plate was warmed to 37° C. in an incubator over 10 minutes. 5 μL pre-warmed NADPH regenerating system was added to each incubation well to start the reaction. Final incubation volume was 50 μL. The assay plate then was placed back in the 37° C. incubator. After 10 minutes incubation, incubates were quenched by addition of 50 μL 100% acetonitrile containing internal standards (20 ng/mL D3-Dextrorphan). The supernatants were collected for RapidFire/MS/MS analysis.
RapidFire online solid phase extraction/sample injection system (Agilent) coupled with API4000 triple quadrupole mass spectrometer (AB Sciex) were used for sample analysis. The mobile phase composed of acetonitrile and water supplemented with 0.1% formic acid. A C4 solid phase extraction cartridge is used for sample separation. MS detection is achieved in positive ion MRM mode.
Peak areas for substrate, metabolite and internal standard are determined using the RapidFire integrator software (version 3.6.12009.12296). Peak area ratios (PAR) of metabolite and internal standard (stable-labelled metabolite) are then calculated. The measurement window for each experiment is then defined:
PAR (0% activity)=average PAR for all incubations containing concentrated inhibitor;
Par (100% activity)=average PAR for all incubations containing no inhibitor (DMSO controls);
% Activity (test inhibitor)=
[PAR(test inhibitor)−PAR(0% activity)]/[PAR(100% activity)−PAR(0% activity)]; % Inhibition (test inhibitor)=100−% Activity (test inhibitor).

T2 sequence (P10635 whole entry): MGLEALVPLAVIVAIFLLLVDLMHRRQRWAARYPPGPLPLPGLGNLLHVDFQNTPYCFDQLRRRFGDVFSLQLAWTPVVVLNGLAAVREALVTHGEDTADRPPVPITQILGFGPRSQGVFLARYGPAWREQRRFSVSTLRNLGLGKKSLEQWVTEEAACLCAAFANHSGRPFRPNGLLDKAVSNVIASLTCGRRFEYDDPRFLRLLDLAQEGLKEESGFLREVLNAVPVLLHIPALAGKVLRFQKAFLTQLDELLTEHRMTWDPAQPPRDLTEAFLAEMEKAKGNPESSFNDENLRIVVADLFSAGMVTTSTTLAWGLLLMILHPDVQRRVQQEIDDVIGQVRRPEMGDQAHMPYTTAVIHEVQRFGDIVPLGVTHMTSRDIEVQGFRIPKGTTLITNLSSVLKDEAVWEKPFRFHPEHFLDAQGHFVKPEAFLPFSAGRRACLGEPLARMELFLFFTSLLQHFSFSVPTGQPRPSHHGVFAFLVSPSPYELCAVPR

SMILES | pIC50 (human TLR7) | inhibition at 10 min, 10 µM (CYP2D6) [%]
C[C@@H]1CN(c2ccc(C#N)c3ncccc23)C[C@H](CN2CC(n3ncc4c3CN[C@@H](C)C4)C2)O1 (single isomer, unassigned) [Example 27] | 8.22 | 22
C[C@@H]1Cc2cnn(C3CN(C[C@H]4CN(c5ccc(C#N)c6ncccc56)C[C@@H](C)O4)C3)c2CN1 (single isomer, unassigned) [Example 28] | 8.30 | 0.5
C[C@@H]1CN(c2ccc(C#N)c3ncccc23)C[C@H](CN2CC(n3ncc4c3[C@@H](C)NCC4)C2)O1 (single isomer, unassigned) [Example 31] | > 8.52 | -3.5
C[C@@H]1CN(c2ccc(C#N)c3ncccc23)C[C@H](CN2CC(n3ncc4c3[C@H](C)NCC4)C2)O1 (single isomer, unassigned) [Example 32] | > 8.52 | 11
C[C@@H]1CN(c2ccc(C#N)c3ncccc23)C[C@H](CN2CC(n3cc4c(n3)[C@@H](C)NCC4)C2)O1 (single isomer, unassigned) [Example 33] | 8.15 | 
C[C@@H]1CN(c2ccc(C#N)c3ncccc23)C[C@H](CN2CC(n3cc4c(n3)[C@H](C)NCC4)C2)O1 (single isomer, unassigned) [Example 34] | 8.22 | -11.5
C[C@@H]1CN(c2ccc(C#N)c3ncccc23)C[C@H](CN2CC(n3ncc4c3CNC4)C2)O1 [Example 10, 5-[(2S,6R)-2-[[3-(5,6-dihydro-4H-pyrrolo[3,4-c]pyrazol-1-yl)azetidin-1-yl]methyl]-6-methyl-morpholin-4-yl]quinoline-8-carbonitrile] | 7.80 | 
Cc1nn(C2CN(C[C@H]3CN(c4ccc(C#N)c5ncccc45)C[C@@H](C)O3)C2)c2c1CN(C)CC2 [Example 14, 5-[(2S,6R)-2-[[3-(3,5-dimethyl-6,7-dihydro-4H-pyrazolo[4,3-c]pyridin-1-yl)azetidin-1-yl]methyl]-6-methyl-morpholin-4-yl]quinoline-8-carbonitrile] | 7.59 | 
C[C@@H]1CN(c2ccc(C#N)c3ncccc23)C[C@H](CN2CCC(n3ncc4c3CCNC4)CC2)O1 [Example 35, 5-[(2R,6S)-2-methyl-6-[[4-(4,5,6,7-tetrahydropyrazolo[4,3-c]pyridin-1-yl)-1-piperidyl]methyl]morpholin-4-yl]quinoline-8-carbonitrile] | 8.30 | 
Cc1c2c(nn1C1CN(C[C@H]3CN(c4ccc(C#N)c5ncccc45)C[C@@H](C)O3)C1)CNCC2 [Example 43, 5-[(2R,6S)-2-methyl-6-[[3-(3-methyl-4,5,6,7-tetrahydropyrazolo[3,4-c]pyridin-2-yl)azetidin-1-yl]methyl]morpholin-4-yl]quinoline-8-carbonitrile] | 7.77 | 

The remaining lines, values ahead:

pIC50 (human TLR7) | inhibition at 10 min, 10 µM (CYP2D6) [%] | SMILES
8.40 |  | C[C@@H]1CN(c2ccc(C#N)c3ncccc23)C[C@H](CN2CC(n3cc4c(n3)[C@H](C)CNC4)C2)O1 (single isomer, unassigned) [Example 25]
8.22 | 20 | C[C@@H]1CN(c2ccc(C#N)c3ncccc23)C[C@H](CN2CC(n3cc4c(n3)[C@@H](C)CNC4)C2)O1 (single isomer, unassigned) [Example 26]
8.10 |  | C[C@@H]1CN(c2ccc(C#N)c3ncccc23)C[C@H](CN2CC(n3cc4c(n3)CN[C@@H](C)C4)C2)O1 (single isomer, unassigned) [Example 29]
8.30 | 3.5 | C[C@@H]1Cc2cn(C3CN(C[C@H]4CN(c5ccc(C#N)c6ncccc56)C[C@@H](C)O4)C3)nc2CN1 (single isomer, unassigned) [Example 30]
8.00 |  | C[C@@H]1CN(c2ccc(C#N)c3ncccc23)C[C@H](CN2CC(n3ncc4c3CCNC4)C2)O1 [Example 1, 5-[(2R,6S)-2-methyl-6-[[3-(4,5,6,7-tetrahydropyrazolo[4,3-c]pyridin-1-yl)azetidin-1-yl]methyl]morpholin-4-yl]quinoline-8-carbonitrile]
7.60 | 1 | C[C@@H]1CN(c2ccc(C#N)c3ncccc23)C[C@H](CN2CC(n3cc4c(n3)CCNC4)C2)O1 [Example 2, 5-[(2R,6S)-2-methyl-6-[[3-(4,5,6,7-tetrahydropyrazolo[4,3-c]pyridin-2-yl)azetidin-1-yl]methyl]morpholin-4-yl]quinoline-8-carbonitrile]
8.52 | 10.5 | C[C@@H]1CN(c2ccc(C#N)c3ncccc23)C[C@H](CN2CC(n3ncc4c3CNCC4)C2)O1 [Example 3, 5-[(2R,6S)-2-methyl-6-[[3-(4,5,6,7-tetrahydropyrazolo[3,4-c]pyridin-1-yl)azetidin-1-yl]methyl]morpholin-4-yl]quinoline-8-carbonitrile]
8.05 | 7.5 | C[C@@H]1CN(c2ccc(C#N)c3ncccc23)C[C@H](CN2CC(n3cc4c(n3)CNCC4)C2)O1 [Example 4, 5-[(2R,6S)-2-methyl-6-[[3-(4,5,6,7-tetrahydropyrazolo[3,4-c]pyridin-2-yl)azetidin-1-yl]methyl]morpholin-4-yl]quinoline-8-carbonitrile]
8.40 |  | C[C@@H]1CN(c2ccc(C#N)c3ncccc23)C[C@H](CN2CC(n3cc4c(n3)C(C)(C)CNC4)C2)O1 [Example 24, 5-[(2S,6R)-2-[[3-(7,7-dimethyl-5,6-dihydro-4H-pyrazolo[4,3-c]pyridin-2-yl)azetidin-1-yl]methyl]-6-methyl-morpholin-4-yl]quinoline-8-carbonitrile]
